Data published in patent US9452992B2 (priority 2011, dated 2016).

System: VSV particles pseudotyped with EboV GP on CHO cells overexpressing NPC1
Type: cell-based, Chinese hamster

Structure (SMILES)	effect of NPC1 overexpression on antiviral activity
O=C(CC12CC3CC(CC(C3)C1)C2)NCC(=O)N1CCN(Cc2ccccc2)CC1 [3.0, 2-((3r,5r,7r)-adamantan-1-yl)-N-(2-(4-benzylpiperazin-1-yl)-2-oxoethyl)acetamide]	conferred resistance
COC(=O)c1ccc(COc2ccccc2CN2CCN(C(=O)CNC(=O)CC34CC5CC(CC(C5)C3)C4)CC2)cc1 [compound 3.48, methyl 4-((2-((4-(2-(2-((3r,5r,7r)-adamantan-1-yl)acetamido)acetyl)piperazin-1-yl)methyl)phenoxy)methyl)benzoate]	conferred resistance
